Assay [1] relates to HRPE. In words: Induction of cell cycle arrest in human RPE cells expressing MYC-Bcl2 assessed as disorganized NUMA1 at 4 uM for 6 hrs by immunostaining analysis. The class given is functional, cell-based.
Assay [2] has as its system HRPE. In words: Induction of mitotic arrest in HRPE Cells overexpressing MYC-Bcl2 measured for 46 to 62 hrs by time-lapse analysis. The class given is functional, tissue-based. To be noted: Homo sapiens, dose 2-4 µM, time 46-62 hrs.
Assay [3] relates to HRPE. In words: Induction of mitotic arrest in HRPE Cells overexpressing MYC at 20 uM by acridine orange staining based fluorescence microscopic analysis. The class given is functional, tissue-based. To be noted: Homo sapiens.
Assay [4] relates to HRPE. As to the kind of experiment: Induction of mitotic arrest in HRPE Cells overexpressing MYC assessed as polyploidy at 5 uM by acridine orange staining based fluorescence microscopic analysis. The class given is functional, tissue-based. The settings on record: Homo sapiens.
Assay [5] can be described thus: Induction of mitotic arrest in HRPE Cells overexpressing MYC measured for 24 hrs by acridine orange staining based fluorescence microscopic analysis. The class given is functional, tissue-based, Homo sapiens.
Assay [6] is described as follows: Induction of mitotic arrest in HRPE Cells overexpressing MYC assessed as polyploidy measured for 48 hrs by acridine orange staining based fluorescence microscopic analysis. The class given is functional, tissue-based, Homo sapiens.
Assay [7] concerns HRPE. In words: Induction of cell cycle arrest in HRPE cells overexpressing MYC/Bcl2 assessed as centrosome amplification measured after 6 hrs by DAPI staining based analysis. The class given is functional. To be noted: Homo sapiens.
The target of assay [8] is T1, Aurora kinase A (Homo sapiens) (UniProt O14965).
T1 sequence (whole entry): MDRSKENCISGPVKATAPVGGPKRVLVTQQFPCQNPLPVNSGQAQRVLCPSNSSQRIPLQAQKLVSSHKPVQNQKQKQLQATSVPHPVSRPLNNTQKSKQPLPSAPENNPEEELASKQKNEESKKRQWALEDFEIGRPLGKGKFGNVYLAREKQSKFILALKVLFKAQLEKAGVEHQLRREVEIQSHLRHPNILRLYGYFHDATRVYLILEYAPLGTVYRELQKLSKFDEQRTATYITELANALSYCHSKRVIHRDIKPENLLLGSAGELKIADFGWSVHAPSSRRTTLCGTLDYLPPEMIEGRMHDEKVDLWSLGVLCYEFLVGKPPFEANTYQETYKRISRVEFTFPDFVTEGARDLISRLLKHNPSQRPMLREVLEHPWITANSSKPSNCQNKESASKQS
In words: Inhibition of AURKA (unknown origin) in HRPE cells overexpressing MYC/Bcl2 assessed as inhibition of autophosphorylation of threonine 288 at 20 uM measured for 6 hrs by immunostaining based fluorescence microscopic analysis. The class given is cell-based.

Assay [9] has as its target Aurora kinase B (Homo sapiens) (UniProt Q96GD4). In words: Inhibition of AURKB (unknown origin) in HRPE cells overexpressing MYC/Bcl2 assessed as decrease in H3PS10 fluorescence intensity at 20 uM measured for 6 hrs by immunostaining based fluorescence microscopic analysis. The class given is cell-based.
Another assay deals with NCI-H460. In words: Cytotoxicity against human NCI-H460 cells assessed as centrosome amplification and declustering by measuring multiple foci by immunostaining analysis. The class given is functional, cell-based. The settings on record: time 72.0 hrs.
Assay [10] is described as follows: Cytotoxicity against human wild type p53HCT116 cells assessed as cell viability measured after 72 hrs by MTT assay. The class given is functional, cell-based. The settings on record: p53HCT116, 72 h.
Assay [11] can be described thus: Cytotoxicity against human HCT116-p53-null cells assessed as cell viability measured after 72 hrs by MTT assay. The class given is functional, cell-based. A general note: Tetrazolium dyes change colour on reduction, which living cells bring about.
A further assay deals with NCI-H23. In words: Cytotoxicity against human NCI-H23 cells harboring MYC assessed as cell viability measured after 72 hrs by MTT assay. The class given is functional, cell-based. To be noted: NCI-H23, 72 h.
Assay [12] is described as follows: Cytotoxicity against HRPE cells overexpressing MYC assessed as cell viability measured after 72 hrs by MTT assay. The class given is functional, cell-based. To be noted: Homo sapiens.
A short description of assay [13]: Cytotoxicity against HRPE cells overexpressing MYC/Bcl2 assessed as cell viability measured after 72 hrs by MTT assay. To be noted: Homo sapiens. The class given is functional, cell-based.
A further assay has as its system A549. As to the kind of experiment: Cytotoxicity against human A549 cells assessed as cell viability measured after 72 hrs by MTT assay. The class given is functional, cell-based. The settings on record: A549, 72 h.
In a further assay the test system is HeLa. In words: Cytotoxicity against human HeLa cells assessed as cell viability measured after 72 hrs by MTT assay. The class given is functional, cell-based.
The subject of a further assay is MDA-MB-231. In words: Cytotoxicity against human MDA-MB-231 cells assessed as cell viability measured after 72 hrs by MTT assay. To be noted: MDA-MB-231, 72 h. The class given is functional, cell-based.
The subject of the next assay is SW480. In words: Cytotoxicity against human SW480 cells assessed as cell viability measured after 72 hrs by MTT assay. To be noted: SW480, 72 h. The class given is functional, cell-based.
Assay [14] has as its system HRPE. In words: Cytotoxicity against HRPE cells overexpressing MYC-H2BGFP assessed as cell viability measured after 72 hrs by MTT assay. The class given is functional, cell-based. The settings on record: Homo sapiens.
Assay [15] deals with HRPE. As to the kind of experiment: Induction of cell cycle arrest in human RPE cells expressing MYC-Bcl2 assessed as foci in colocalized gamma-tubulin at 4 uM for 6 hrs by immunostaining analysis. The class given is functional, cell-based.
In assay [16] the test system is HRPE. In words: Induction of cell cycle arrest in human RPE cells expressing MYC-Bcl2 assessed as foci in colocalized Aurora kinase A at 4 uM for 6 hrs by immunostaining analysis. The class given is functional, cell-based.
Assay [17] deals with HRPE. In words: Induction of cell cycle arrest in human RPE cells expressing MYC-Bcl2 assessed as disorganized alpha-tubulin at 4 uM for 6 hrs by immunostaining analysis. The class given is functional, cell-based.

Molecules are shown by their SMILES. pEC50, pIC50: −log10 of the molar value. Activity calls are given as the source filed them. No cut-off for these calls is given here.

Sequence of Aurora kinase B (Homo sapiens) (Q96GD4 whole entry): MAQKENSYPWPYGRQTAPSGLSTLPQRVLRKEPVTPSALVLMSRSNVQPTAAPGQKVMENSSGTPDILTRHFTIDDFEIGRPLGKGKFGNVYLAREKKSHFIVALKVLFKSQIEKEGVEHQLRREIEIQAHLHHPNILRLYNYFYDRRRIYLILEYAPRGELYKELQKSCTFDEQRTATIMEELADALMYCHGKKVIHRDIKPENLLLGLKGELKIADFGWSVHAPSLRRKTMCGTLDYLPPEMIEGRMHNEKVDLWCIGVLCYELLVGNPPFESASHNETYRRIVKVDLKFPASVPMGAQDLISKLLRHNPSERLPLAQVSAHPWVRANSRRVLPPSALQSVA

`CCN(CCCOc1ccc2c(Nc3cc(CC(=O)Nc4cccc(F)c4)[nH]n3)ncnc2c1)CCOP(=O)(O)O`: the result in the assay on HRPE [1] was inactive.
Take `COc1cc2c(cc1O)[C@@H]1Cc3ccc(OC)c(O)c3CN1CC2` [SCOULERINE]: in the assay on HRPE [2], the Activity result is “Dose-Dependent Effect”. Further, the result in the assay on HRPE [3], with HRPE [7] and in the assay on HRPE [14] was inactive. Besides, the outcome in the assay on HRPE [4], in the assay on NCI-H460, with HRPE [15], in the assay on HRPE [16], in the assay with HRPE [17] and in the assay on HRPE [1] was Active. The pEC50 was 5.45 in assay [5] and 5.44 in assay [6]. Further, the inhibition result in assay [8] and in assay [9] was “Active” in each case. In addition, the pIC50 in assay [10] was 5.17; in assay [11], 5.26; in the assay on NCI-H23, 5.59; in assay [12] it was 5.39; in assay [13], 5.34; in the assay with A549 it was 4.58. Also, the pIC50 is 5.17 in the assay on HeLa, 5.14 in the assay on MDA-MB-231 and 5.37 with SW480.
Consider `COc1cc2c(cc1O)[C@@H]1Cc3ccc(O)c(OC)c3CN1CC2`, for which the result in the assay with HRPE [3] was inactive.
For `COc1cc(Nc2ncc3c(n2)-c2ccc(Cl)cc2C(c2c(F)cccc2OC)=NC3)ccc1C(=O)O`, the outcome in the assay with HRPE [14] was Active.
Regarding `COc1cc2c(cc1OC)[C@@H]1Cc3ccc(OC)c(OC)c3CN1CC2`, the outcome in the assay with HRPE [3] was inactive.

As a reminder, the pEC50 is the EC50 on a negative log10 scale, so that one unit is a factor of ten. By pIC50 is commonly meant −log10 of the IC50, conventionally taken in molar units.

For the origin of these results see ChEMBL document CHEMBL4840328, “The Phytochemical Scoulerine Inhibits Aurora Kinase Activity to Induce Mitotic and Cytokinetic Defects” (J Nat Prod, 2021).
